According to patent US11198705B2, “Hybrid Amphotericin B derivatives with reduced toxicity” (priority 2018, dated 2021):
Values after ≈ are worked out from the molar mass of the structure shown. Read-outs that look alike come from different tables or passages of the source.

How the values were obtained:
[1] = system: yeast; assay: Activity against yeast / cell killing (FIG. 2); format: cell-based
Text: (§1) This key discovery opened a path to the rational development of a non-toxic AmB variant. To probe its predicted role in sterol binding, the hydroxyl group was synthetically deleted at the C2′ position on the mycosamine appendage. […] Consistent with the sterol sponge model, this derivative retained good activity against yeast but, most importantly, was nontoxic to human red blood cells and primary (hREC) (FIG. 2B).
(§2) A practical 11-step synthesis of C2′epiAmB using a frontier site-selective acylation method was developed (FIG. 4). Wilcock, B. C. et al., Nat Chem 2012, 4 (12), 996-1003; Uno, B. E. A synthesis enabled understanding of Amphotericin B leading to derivatives with improved therapeutic indices. University of Illinois at Urbana-Champaign, 2014. The sterol binding and cell killing activities was then determined.

[2] = Isothermal titration calorimetry (ITC) sterol binding, cholesterol; conditions: within detection limits of ITC
Text: as §1, §2

[3] = system: primary human renal epithelial cells (hREC)
Text: As a complementary parallel first step in the screening funnel, the MTC's of all new derivatives will be evaluated against hREC using a WST-8 cell proliferation assay kit as previously described above. The MTC will be determined by calculating the mean of at least two biological replicates.

[4] = Isothermal titration calorimetry (ITC) sterol binding, ergosterol; conditions: within detection limits of ITC
Text: as §1, §2

[5] = system: human red blood cells; format: cell-based
[6] = format: binding; conditions: for binding to ergosterol: UV-Vis/PCA sponge-sterol titration
Text: (§3) However, an alternative method was developed for reproducible formation of homogenous AmB and C2′epiAmB sterol sponge aggregates in vitro. Using these preparations, a quantitative UV-Vis and Principle Component (PCA) based assay for determining the apparent KDS for the binding of AmB and C2′epiAmB to ergosterol and cholesterol (FIGS. 5A-D) was developed.
(§4) Biophysical studies support the conclusion that different capacities to bind cholesterol underlie these striking differences in toxicity for the AmBUreas versus C2′epiAmB (FIG. 15). Isothermal titration calorimetry is unable to distinguish between cholesterol binding in these two series. However, a more sensitive and quantitative UV-Vis/PCA based sponge-sterol titration experiments described above (see Example 1) was employed to quantify the binding of a representative AmB urea (AmBAU) to ergosterol and cholesterol. […] It was reasoned that the lack of cholesterol binding in C2′epiAmB to a ligand-selective allosteric effect was caused by epimerization of the C2′stereocenter (see Example 1), and thus predict that the biophysical effects associated with C2′-epimerization should be transposable to other AmB derivatives.

[7] = system: C. albicans; assay: MIC against C. albicans with and without pre-complexation with ergosterol; format: cell-based; conditions: sponge pre-complexed with ergosterol
Text: Anderson, T. M. et al., Nat Chem Biol 2014, 10 (5), 400-6. […] Davis, S. A., et al., Nat Chem Biol 2015, 11 (7), 481-7. To test whether C2′epiAmB primarily kills cells via the same sterol sponge mechanism, the C2′epiAmB sponge was similarly pre-complexed with ergosterol (FIG. 9). […] Thus, C2′epiAmB similarly kills yeast primarily via sterol binding, and, by extension, the new compounds targeted in this application are expected to have a similar barrier to fungal resistance that has been observed for the past 50+ years with AmB.

[8] = system: invasive candidiasis; assay: Murine model of invasive candidiasis, intraperitoneal AmBUreas (FIG. 12); format: in vivo, mice
Description: (§5) To enable a head-to-head comparison with the AmB urea derivatives, AmB was delivered as a non-deoxycholate complex. […] These AmBUreas were also tested via intravenous administration in a similar model at EvoTec (Oxfordshire, UK), and their activities were compared directly with IV AmB-deoxycholate (Fungizone®) and liposomal AmB (AmBisome®) (FIG. 13).

[9] = system: four strains of clinically relevant Candida species and four challenging strains of A. fumigatus; assay: In vitro antifungal activity, four Candida strains and four A. fumigatus strains (FIG. 11D); format: cell-based; conditions: Aspergillus fumigatus, read-out: Mean MIC
Text: (§6) Both AmBAU and AmBTACBU was further tested and compared to AmB against four strains of clinically relevant Candida species and four challenging strains of A. fumigatus (FIG. 11D).

[10] = system: panel of clinical isolates; assay: In vitro antifungal activity, panel of clinical isolates (FIG. 11B); format: cell-based; conditions: read-out: Mean MIC
Text: Burke, Andes, and Lindquist reported in 2015 a series of AmB derivatives in which the C16 acid is replaced with a urea motif via a scalable 3-step synthesis from AmB (FIG. 11A). Davis, S. A., et al., Nat Chem Biol 2015, 11 (7), 481-7. AmBUreas were studied at REVOLUTION Medicines, a biotech company for which Burke is a Founder and Consultant and Steinbach served on the Clinical Advisory Board.
as §6

[11] = system: clinically relevant invasive molds; assay: In vitro antifungal activity, panel of clinically relevant invasive molds (FIG. 8C); format: cell-based; conditions: many strains, including pan-azole resistant strain F14196
[12] = system: C. albicans; assay: Murine model of invasive candidiasis, single IP injection (FIG. 10); format: in vivo, neutropenic ICR/Swiss mice
Text: Andes, D. et al., Antimicrobial agents and chemotherapy 2001, 45 (3), 922-6. […] Wiederhold, N. P. et al., Antimicrobial agents and chemotherapy 2006, 50 (2), 469-73.

[13] = system: Candida and Aspergillus clinical isolates; assay: In vitro antifungal activity, Candida and Aspergillus clinical isolates (Evotec); format: cell-based; conditions: many Candida and several Aspergillus strains
[14] = IV toxicity in mice (mortality); format: in vivo
[15] = system: A. fumigatus 91, A. fumigatus 1100; assay: MIC against A. fumigatus 91 and A. fumigatus 1100; format: cell-based
Text: The results with C2′epiAmBAU strongly support the prediction that C16 modifications will show improved potency compared to C2′epiAmB. […] Thus, it is expected that hybridizations of C2′epiAmB with other urea side chains will yield similar increases in potency without any mammalian toxicity. If this proves not to be the case, other classes of C16 modifications that also increase potency will be pursed. […] Alternative modifications may be pursed at the mycosamine appendage that the modelling predicts should similarly eliminate the water-bridged C2′OH to C13OH hydrogen bond, e.g., C2′deoxygenation, C2′-halodeoxygenation, or C2′-methyldeoxygenation, and thus eliminate cholesterol binding (see FIGS. 3A and 3B). This study anticipates high doses of non-toxic C2′epiAmBUreas will yield a significant reduction in fungal burden and therefore an increase in survival in QD dosing efficacy studies relative to AmB-deoxycholate (Fungizone®), AmBisome®, C2′epiAmB, voriconazole, and caspofungin.

[16] = system: series of important pathogens (Candida and Aspergillus strains); assay: In vitro antifungal activity of C2′epiAmBAU hybrid vs AmB, C2′epiAmB and AmBAU (FIG. 18); format: cell-based; conditions: A. fumigatus 91, A. fumigatus 1163, and A. fumigatus 1100
Text: In a key result, synthesis on small scale was accomplished on the first targeted hybrid derivative, C2′epiAmBAU, as per FIG. 17 confirming the feasibility of the route to these natural product analogs. The initial biological analysis of this first C2′epiAmBUrea derivative was very encouraging since a substantial increase in antifungal potency for C2′epiAmBAU relative to C2′epiAmB was observed (FIG. 18).

[17] = system: 40 Aspergillus clinical isolates, including azole-resistant A. fumigatus, A. flavus, and A. terreus; assay: Antifungal testing, extended panel of 40 Aspergillus clinical isolates (Fungus Testing Laboratory, UT-San Antonio); format: cell-based
[18] = UV-Vis/PCA sterol sponge titration, cholesterol; format: binding
Text: as §3, §4

[19] = system: A. fumigatus; assay: In vitro antifungal activity, A. fumigatus strains (Evotec); format: cell-based
[20] = IV toxicity in rats (BUN, ALT/AST, mortality)
[21] = PK/PD properties in mice, rats and dogs (FIG. 14); format: in vivo; conditions: rats, dogs
[22] = system: Scedosporium prolificans; assay: In vitro antifungal activity against Scedosporium prolificans; format: cell-based; conditions: recalcitrant strain
Text: (§7) Steinbach and Burke recently collaborated to further compare the activity of a series of AmBUreas (AmBAU, AmBMU, and AmBCU) with AmBisome®, C2′epiAmB, caspofungin, and voriconazole against a wide range of clinically relevant pathogens, including AmB-resistant Scedosporium strains (FIG. 11C).

[23] = system: candidiasis; assay: Candidiasis mouse model, intravenous administration (EvoTec, FIG. 13); format: in vivo, mice
Description: as §5

[24] = system: wide range of clinically relevant pathogens; assay: In vitro antifungal activity, wide range of clinically relevant pathogens (FIG. 11C); format: cell-based; conditions: across a wide range of pathogens
Text: as §7

## CC1C=CC=CC=CC=CC=CC=CC=CC(OC2CC(N)C(O)C(C)O2)CC2OC(O)(CC(O)CC(O)C(O)CCC(O)CC(O)CC(=O)OC(C)C(C)C1O)CC(O)C2C(=O)O (stereo not drawn) [C2′deOAmB, reference compound]
[1]
  activity against yeast: good activity
[2]
  binding of cholesterol by ITC: not cholesterol
[3]
  toxicity to primary hREC: nontoxic
[4]
  binding of ergosterol by ITC: bind ergosterol
[5]
  toxicity to human red blood cells: nontoxic

## C[C@@H]1[C@H](O)[C@@H](C)/C=C/C=C/C=C/C=C/C=C/C=C/C=C/[C@H](O[C@@H]2O[C@H](C)[C@@H](O)[C@H](N)[C@@H]2O)C[C@@H]2O[C@](O)(C[C@@H](O)C[C@@H](O)[C@H](O)CC[C@@H](O)C[C@@H](O)CC(=O)O[C@H]1C)C[C@H](O)[C@H]2C(=O)O [AmB, Amphotericin B]
[6]
  Kd: 120 nM
[7]
  change in potency upon ergosterol pre-complexation: same reduction in potency
[8]; AmB delivered as a non-deoxycholate complex
  dose-response: atypical lack of dose-response
[9]
  MIC: 1.33 µM (≈ 1.23 µg/mL)
[3]; human
  minimum toxic concentration (MTC) against primary hRECs: 2.4 µM
  minimum toxic concentration (MTC) in hREC, preliminary analysis: 2 to 4 µM
[10]
  MIC: 1.23 µM (≈ 1.14 µg/mL)

## C[C@@H]1[C@H](O)[C@@H](C)/C=C/C=C/C=C/C=C/C=C/C=C/C=C/[C@H](O[C@@H]2O[C@H](C)[C@@H](O)[C@H](N)[C@H]2O)C[C@@H]2O[C@](O)(C[C@@H](O)C[C@@H](O)[C@H](O)CC[C@@H](O)C[C@@H](O)CC(=O)O[C@H]1C)C[C@H](O)[C@H]2C(=O)O [C2′epiAmB]
[11]
  antifungal potency: good antifungal potency
[12]; 16 mg/kg
  fungal burden: outstanding reductions in fungal burden
[12]; deoxycholate complex, 1, 4, 8, or 16 mg/kg
  efficacy: dose-dependent efficacy
[13]
  in vitro antifungal activity: good activity
[6]
  binding to ergosterol: retained binding
[1]; fungal vs human cells
  cell killing activities: kill fungal but not human cells
[14]; IV, mice, 128 mg/kg (highest dose tested)
  mortality: survived
[14]; up to the highest dose tested
  toxicity to mice: non-toxic
[2]
  binding of cholesterol by ITC: not (detectably) cholesterol
[7]
  change in potency upon ergosterol pre-complexation: same reduction in potency
[15]; A. fumigatus 91
  MIC: > 64 µM
[15]; A. fumigatus 1100
  MIC: 32 µM (≈ 29.6 µg/mL)
[3]
  minimum toxic concentration (MTC) against primary hRECs: > 80 µM
  toxicity to primary hREC: non-toxic
[16]
  resistance of strains to compound: complete or nearly complete resistance
[17]; average across all 40 strains
  average potency relative to AmB (less potent): 5.6 fold
[17]; range over 40 Aspergillus clinical isolates
  potency relative to AmB (less potent): 2-16 times
[4]
  binding of ergosterol by ITC: bind ergosterol
[18]
  binding to cholesterol: no detectable binding
[5]
  toxicity to human red blood cells: non-toxic
[19]; A. fumigatus AF91
  potency relative to AmB (less potent): > 32 times
[19]; A. fumigatus AF293, A1163, and ATC204305
  potency relative to AmB (less potent): 4 fold
[20]; 17.5 mg/kg (highest tested dose)
  toxicity in rats: no such toxicity
[20]; up to the highest dose tested
  toxicity to rats: non-toxic

## COC(=O)C1C(O)CC2(O)CC(O)CC(O)C(O)CCC(O)CC(O)CC(=O)OC(C)C(C)C(O)C(C)C=CC=CC=CC=CC=CC=CC=CC(OC3OC(C)C(O)C(N)C3O)CC1O2 (stereo not drawn) [C2′epiAmBME, C2′epiAmB C16 methyl ester]
[15]; A. fumigatus 91
  MIC: 4 µM (≈ 3.75 µg/mL)
[15]; A. fumigatus 1100
  MIC: 4 µM (≈ 3.75 µg/mL)

## C[C@@H]1[C@H](O)[C@@H](C)/C=C/C=C/C=C/C=C/C=C/C=C/C=C/C(OC2O[C@H](C)[C@@H](O)[C@H](N)[C@@H]2O)C[C@@H]2O[C@](O)(C[C@@H](O)C[C@@H](O)[C@H](O)CC[C@@H](O)C[C@@H](O)CC(=O)O[C@H]1C)C[C@H](O)[C@H]2NC(=O)NCCN (stereo partly drawn) [AmBAU]
[6]
  binding to ergosterol: confirmed to bind
[21]
  PK/PD properties: favorable PK/PD properties
[22]
  activity against Scedosporium prolificans: active
[14]; IV, mice
  dose at which death was observed: 32 mg/kg
[8]; administered intraperitoneally
  efficacy: exceptionally effective
[9]; FIG. 11D, four Candida and four A. fumigatus strains
  MIC: 0.5 µM (≈ 0.491 µg/mL)
[23]; 1 mg/kg, within the limits of assay detection
  kidney fungal burden: sterilization in multiple mice
[23]; 16 mg/kg
  kidney fungal burden: complete sterilization
[3]
  minimum toxic concentration (MTC) against primary hRECs: 11.3 µM
[24]
  antifungal potency: excellent potency
[18]
  binding to cholesterol: confirmed to bind
[5]; highest concentrations tested
  concentration failing to fully lyse red blood cells: > 500 µM
[20]; 6 mg/kg
  toxicity in rats: significant toxicity

## CNC(=O)N[C@H]1[C@@H]2CC(OC3O[C@H](C)[C@@H](O)[C@H](N)[C@@H]3O)/C=C/C=C/C=C/C=C/C=C/C=C/C=C/[C@H](C)[C@@H](O)[C@@H](C)[C@H](C)OC(=O)C[C@H](O)C[C@H](O)CC[C@@H](O)[C@H](O)C[C@H](O)C[C@](O)(C[C@@H]1O)O2 (stereo partly drawn) [AmBMU]
[3]; human
  minimum toxic concentration (MTC) against primary hRECs: 44.4 µM
[18]
  binding to cholesterol: retains the capacity to bind cholesterol
[20]; 6 mg/kg
  toxicity in rats: significant toxicity
